The values below come from US9676818B2, “Toll-like receptor 2-agonistic lipopeptides, and method of making the same” (University of Kansas, priority 2013, dated 2017).

Structures are written as SMILES. pEC50: −log10 of the molar value. Entries after “also recorded” stand apart in the source; their conditions may differ. Like-named read-outs stand apart in the source and are kept apart here.

A short description of one series: Aqueous solubility. Format: physicochemical.
In a further series the target is human TLR2 (Homo sapiens (Human), UniProt O60603). In words: human TLR2-specific NF-κB reporter gene assay (HEK-Blue cells). Format: cell-based. To be noted: for EC50 / remark beside the EC50 (potency): human TLR2-specific reporter gene assay; for EC50: ND = no activity detected at 10 μM, read-out: TLR2-Agonistic Activity (EC50 in nM). From the text:
(§1) The induction of NF-κB in a TLR2-specific reporter gene assay was quantified using HEK-BLUE™ cells as previously described (Wu, W. et al., J. Med. Chem. 2010, 53, 3198-3213). HEK293 cells stably transfected with either human TLR2 or murine TLR2 and alkaline phosphatase (sAP) were obtained from InvivoGen (San Diego, Calif.), and were maintained in HEK-BLUE™ Selection medium containing zeocin and normocin. Stable expression of secreted alkaline phosphatase (sAP) under control of NF-κB promoters is inducible by TLR2 agonists, and extracellular sAP in the supernatant is proportional to NF-κB induction. HEK-Blue cells were incubated at a density of ˜10^5 cells/mL in a volume of 80 μL/well, in 384-well, flat-bottomed, cell culture-treated microtiter plates until confluency was achieved, and then stimulated with serially-diluted aliquots of compounds for 12 h. sAP was assayed spectrophoto-metrically using an alkaline phosphatase-specific chromogen (present in the HEK-detection medium as supplied by the vendor) at 620 nm. For antagonism assays, HEK-Blue cells were incubated at a density of ˜10^5 cells/mL in a volume of 80 μL/well and stimulated with either PAM2CS (1 μg/mL) or lipoteichoic acid (1 μg/mL) in the presence of graded concentrations of the test compounds as described for TLR7 previously (Shukla, N. M.; et al., Bioorg. Med. Chem. Lett. 2009, 19, 2211-2214; Shukla, N. M. et al., Bioorg. Med. Chem. 2011, 19, 3801-3811).

The target in the next series is murine TLR2 (Mus musculus (Mouse), UniProt Q9QUN7). The series is described as follows: murine TLR2-specific NF-κB reporter gene assay (HEK-Blue cells). The class given is cell-based.
Chain of murine TLR2 (Q9QUN7 25-784): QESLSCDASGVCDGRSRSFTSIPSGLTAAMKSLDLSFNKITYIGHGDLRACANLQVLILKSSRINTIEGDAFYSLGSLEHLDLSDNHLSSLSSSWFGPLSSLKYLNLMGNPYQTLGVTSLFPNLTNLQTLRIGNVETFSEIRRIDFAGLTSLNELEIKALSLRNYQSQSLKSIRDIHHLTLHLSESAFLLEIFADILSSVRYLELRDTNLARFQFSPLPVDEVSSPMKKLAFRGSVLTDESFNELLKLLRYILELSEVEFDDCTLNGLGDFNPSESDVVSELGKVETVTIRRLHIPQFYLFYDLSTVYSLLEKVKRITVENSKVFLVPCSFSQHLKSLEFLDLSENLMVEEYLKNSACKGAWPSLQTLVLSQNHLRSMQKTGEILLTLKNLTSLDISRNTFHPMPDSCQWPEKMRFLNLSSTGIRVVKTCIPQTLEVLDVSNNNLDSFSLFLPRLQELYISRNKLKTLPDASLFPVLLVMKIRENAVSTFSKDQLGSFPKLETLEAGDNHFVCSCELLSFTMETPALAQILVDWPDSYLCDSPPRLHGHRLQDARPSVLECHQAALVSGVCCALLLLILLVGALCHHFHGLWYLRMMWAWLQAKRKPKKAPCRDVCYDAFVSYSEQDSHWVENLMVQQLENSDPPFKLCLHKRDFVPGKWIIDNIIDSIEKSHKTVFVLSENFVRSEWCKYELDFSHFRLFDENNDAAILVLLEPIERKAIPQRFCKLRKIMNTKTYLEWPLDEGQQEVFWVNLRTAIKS
Text: as §1, with “For antagonism assays, HEK-Blue cells were incubated at a density of ˜10^5 cells/mL in a volume of 80 μL/well and stimulated with either PAM2CS (1 μg/mL) or lipoteichoic acid (1 μg/mL) in the presence of graded concentrations of the test compounds as described for TLR7 previously (Shukla, N. M.; et al., Bioorg. Med. Chem. Lett. 2009, 19, 2211-2214; Shukla, N. M. et al., Bioorg. Med. Chem. 2011, 19, 3801-3811).” left out

Series [1] can be described thus: Stability of aqueous stocks. The class given is physicochemical.

Chain of human TLR2 (O60603 21-784): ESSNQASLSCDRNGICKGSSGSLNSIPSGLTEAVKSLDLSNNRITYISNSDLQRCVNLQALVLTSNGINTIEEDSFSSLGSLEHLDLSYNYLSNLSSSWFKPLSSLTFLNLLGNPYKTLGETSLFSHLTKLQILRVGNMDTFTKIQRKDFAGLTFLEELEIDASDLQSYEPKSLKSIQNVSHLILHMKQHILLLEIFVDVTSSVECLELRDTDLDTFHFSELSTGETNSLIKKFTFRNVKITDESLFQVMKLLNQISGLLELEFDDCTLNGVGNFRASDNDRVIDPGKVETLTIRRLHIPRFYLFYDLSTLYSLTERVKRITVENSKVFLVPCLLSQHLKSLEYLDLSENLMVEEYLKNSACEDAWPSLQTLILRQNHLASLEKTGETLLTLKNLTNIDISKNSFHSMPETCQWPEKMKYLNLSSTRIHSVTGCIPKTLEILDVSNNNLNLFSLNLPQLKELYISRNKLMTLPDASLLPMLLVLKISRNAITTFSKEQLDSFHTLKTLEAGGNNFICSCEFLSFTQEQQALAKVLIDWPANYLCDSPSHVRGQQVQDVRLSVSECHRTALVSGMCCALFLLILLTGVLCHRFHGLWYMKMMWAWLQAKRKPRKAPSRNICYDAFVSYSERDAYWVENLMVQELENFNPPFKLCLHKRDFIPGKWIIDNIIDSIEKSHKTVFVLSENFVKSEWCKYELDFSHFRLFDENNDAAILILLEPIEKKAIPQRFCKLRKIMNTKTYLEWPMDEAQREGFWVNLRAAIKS

On to `CCCCCCCCCCCCCCCC(=O)OCCSC[C@H](NC(C)=O)C(=O)N[C@@H](COS(=O)(=O)O)C(=O)OC` [Compound 26, 2-(((R)-2-Acetamido-3-(((S)-1-methoxy-1-oxo-3-(sulfooxy)propan-2-yl)amino)-3-oxopropyl)thio)ethyl palmitate], for which the water solubility entry in “Aqueous solubility” is on record as “exceptionally water soluble”. The half-maximal effective concentration (EC50) on human TLR2 came to 7.1 nM.

Regarding `CCCCCCCCCCCCCCCCCC(=O)OCCSC[C@H](N)C(=O)N[C@@H](CO)C(=O)OC` [Compound 6e, 2-(((R)-2-amino-3-(((S)-3-hydroxy-1-methoxy-1-oxopropan-2-yl)amino)-3-oxopropyl)thio)ethyl stearate], on human TLR2, the “remark beside the EC50 (potency)” value was “Low potency” and the EC50 worked out at 4.79 nM. Also, the “agonistic activity in mTLR2 / specificity for hTLR2” value on murine TLR2 was “entirely inactive”.

On to `CCCCCCCCCCCCCCCCn1cc(CCSC[C@H](NC(C)=O)C(=O)N[C@@H](CO)C(=O)OC)nn1` [Compound 38, (S)-Methyl 2-((R)-2-acetamido-3-((2-(1-hexadecyl-1H-1,2,3-triazol-4-yl)ethyl)thio)propanamido)-3-hydroxypropanoate], for which the 50% effective concentration (EC50) on human TLR2 is 641 nM.

Consider `CCCCCCCCCCCCCCCC(=O)NCCSC[C@H](NC(C)=O)C(=O)N[C@@H](CO)C(=O)OC` [Compound 34, (S)-Methyl 2-((R)-2-acetamido-3-((2-palmitamidoethyl)thio)propanamido)-3-hydroxypropanoate], for which, on human TLR2, the EC50 was 11.8 nM.

In the case of `CCCCCCCCCCCCCCCC(=O)N[C@@H](CSCCOC(=O)CCCCCCCCCCCCCCC)C(=O)N[C@@H](CO)C(=O)OC` [Compound 11g, 2-(((R)-3-(((S)-3-hydroxy-1-methoxy-1-oxopropan-2-yl)amino)-3-oxo-2-palmitamidopropyl)thio)ethyl palmitate], the “hTLR2-agonistic activity in words” value on human TLR2 (hTLR2 reporter gene assay) is recorded as “complete loss of activity”. Also, the EC50 at human TLR2 was > 10000 nM.

Consider `CCCCCCCCCCCCCCCC(=O)OCCSC[C@H](NC(C)=O)C(=O)N[C@@H](CCCCN)C(=O)OC` [Compound 23, 2-(((R)-2-Acetamido-3-(((S)-6-amino-1-methoxy-1-oxohexan-2-yl)amino)-3-oxopropyl)thio)ethyl palmitate], for which, in the series “Aqueous solubility”, the water solubility result was “highly water soluble”. Besides, the EC50 on human TLR2 amounted to 0.225 nM. In series [1], the “stability of aqueous stocks” value is on record as “significant loss of activity of aqueous stocks within about a week”.

`CCCCCCCCCCCCCCCC(=O)OCCSC[C@H](NS(C)(=O)=O)C(=O)N[C@@H](CO)C(=O)OC` [Compound 11j, 2-(((R)-3-(((S)-3-hydroxy-1-methoxy-1-oxopropan-2-yl)amino)-2-(methylsulfonamido)-3-oxo-propyl)thio)ethyl palmitate]: the “hTLR2-agonistic activity in words” value at human TLR2 (hTLR2 reporter gene assay) is “inactive”. Also, the EC50 on human TLR2 was > 10000 nM.

Take `CCCCCCCC(=O)OCCSC[C@H](N)C(=O)N[C@@H](CO)C(=O)OC` [Compound 6b, 2-(((R)-2-amino-3-(((S)-3-hydroxy-1-methoxy-1-oxopropan-2-yl)amino)-3-oxopropyl)thio)ethyl octanoate]: on human TLR2, the concentration for a half-maximal effect (EC50) is > 10000 nM.

For the compound `CCCCCCCCCCCCCCCCOC(=O)NCCSC[C@H](NC(C)=O)C(=O)N[C@@H](CO)C(=O)NCCCN(C)C` [Compound 52, Hexadecyl ((8S,11R)-11-acetamido-8-(hydroxymethyl)-2-methyl-7,10-dioxo-13-thia-2,6,9-triazapentadecan-15-yl)carbamate], in the series “Aqueous solubility”, the water solubility result was “restored”. Moreover, on human TLR2, the EC50 is 0.279 nM.

`CCCCCCCCCCCCCCCC(=O)OCCSC[C@H](N)C(=O)N[C@@H](COC(=O)CCCCCCCCCCCCCCC)C(=O)OC` [Compound 14c, 2-(((R)-2-amino-3-(((S)-1-methoxy-1-oxo-3-(palmitoyloxy)propan-2-yl)amino)-3-oxopropyl)thio)ethyl palmitate]: on human TLR2, the EC50 was 5.95 nM.

As to `CCCCCCCCCCCCCCCC(=O)OCCSC[C@H](NC(C)=O)C(=O)N[C@@H](COC(=O)CCC(=O)O)C(=O)OC` [Compound 27, (7S,10R)-10-Acetamido-7-(methoxycarbonyl)-4,9,16-trioxo-5,15-dioxa-12-thia-8-azahentriacontan-1-oic acid], the water solubility result in the series “Aqueous solubility” is “exceptionally water soluble”. For the same compound, the EC50 at human TLR2 came to 0.518 nM.

As for `CCCCCCCCCCCCCCCC(=O)OCCCSC[C@H](N)C(=O)N[C@@H](CO)C(=O)OC` [Compound 15, 3-((R)-2-amino-3-((S)-3-hydroxy-1-methoxy-1-oxopropan-2-ylamino)-3-oxopropylthio)propyl palmitate], at human TLR2 (hTLR2 reporter gene assay), the “hTLR2-agonistic activity in words” value was “inactive”. Besides, the EC50 at human TLR2 is > 10000 nM.

For `CCCCCCCCCCCCCCCC(=O)OCCSC[C@H](NC(=O)CCC)C(=O)N[C@@H](CO)C(=O)OC` [Compound 11e, 2-(((R)-2-butyramido-3-(((S)-3-hydroxy-1-methoxy-1-oxopropan-2-yl)amino)-3-oxopropyl)thio)ethyl palmitate], on human TLR2, the EC50 was found to be 1.64 nM.

Regarding `CCCCCCCCCCCC(=O)OCCSC[C@H](N)C(=O)N[C@@H](CO)C(=O)OC` [Compound 6c, 2-(((R)-2-amino-3-(((S)-3-hydroxy-1-methoxy-1-oxopropan-2-yl)amino)-3-oxopropyl)thio)ethyl dodecanoate], on human TLR2, the EC50 was > 10000 nM.

Take `CCCCCCCCCCCCCCCC(=O)OCCSC[C@H](N)C(=O)N[C@@H](COC(C)=O)C(=O)OC` [Compound 14a, 2-(((R)-3-(((S)-3-acetoxy-1-methoxy-1-oxopropan-2-yl)amino)-2-amino-3-oxopropyl)thio)ethyl palmitate]: on human TLR2 (hTLR2 reporter gene assay), the “hTLR2-agonistic activity in words” value is reported as “virtually indistinguishable from that of 6d”. The EC50 on human TLR2 was 2.97 nM.

Consider `CCCCCCCCCCCCCCCC(=O)OCCSC[C@H](N)C(=O)N[C@@H](CO)C(=O)OC` [Compound 6d], for which, in the series “Aqueous solubility”, the water solubility entry is “water-soluble”. Further, the negative-log EC50 (pEC50) on human TLR2 (hTLR2 reporter gene assay, read-out: EC50 in engaging hTLR2) is 8.44. Also, the “remark beside the EC50 (potency)” value on human TLR2 is recorded as “Low potency”. Besides, the “agonistic activity in mTLR2 / specificity for hTLR2” value at murine TLR2 was “activating human TLR2 (hTLR2), but not murine TLR2 (mTLR2); also recorded: entirely inactive”.

For `CCCCCCCCCCCCCCN(CCCCCCCCCCCCCC)CC(=O)OCCSC[C@H](N)C(=O)N[C@@H](CO)C(=O)OC` [Compound 10a, (S)-methyl 2-((R)-2-amino-3-((2-(2-(ditetradecylamino)acetoxy)ethyl)thio)propan-amido)-3-hydroxypropanoate], the “hTLR2-agonistic activity in words” value at human TLR2 (hTLR2 reporter gene assay) is “completely inactive”. On human TLR2, the EC50 was > 10000 nM.
